Measurements reported in ChEMBL document CHEMBL1146167, “Structural correlation between lipophilicity and lipopolysaccharide-sequestering activity in spermine-sulfonamide analogs” (Bioorg Med Chem Lett, 2006).

Test: Binding affinity to LPS by fluorescence-based displacement assay

Row | SMILES | ED50 [µM]
1 | CCCCCCCCS(=O)(=O)NCCCNCCCCNCCCN | 5
2 | NCCCNCCCCNCCCNS(=O)(=O)c1cccc2cccnc12 | 4880
3 | NCCCNCCCCNCCCNS(=O)(=O)c1cc(Cl)c(Cl)cc1Cl | 19
4 | CCCCCCCCCCS(=O)(=O)NCCCNCCCCNCCCN | 3
5 | CC1(C)C2CCC1(CS(=O)(=O)NCCCNCCCCNCCCN)C(=O)C2 (centres undefined) | 1680
6 | CCCCCCCCCCCCCCCCCCS(=O)(=O)NCCCNCCCCNCCCN | 6
7 | CCCCCCCCCCCCS(=O)(=O)NCCCNCCCCNCCCN | 3
8 | CCCCOc1ccc(CC(C)(C)C)cc1S(=O)(=O)NCCCNCCCCNCCCN | 4
9 | CCCCS(=O)(=O)NCCCNCCCCNCCCN | > 10000
10 | CCCCCCCCCCCCCCCCS(=O)(=O)NCCCNCCCCNCCCN | 2

Second part, the compound after the results:

Row | ED50 [µM] | SMILES
11 | 34 | NCCCNCCCCNCCCNS(=O)(=O)c1cccc2ccccc12
12 | 25 | CC(C)(C)c1ccc(S(=O)(=O)NCCCNCCCCNCCCN)cc1
13 | 21 | NCCCNCCCCNCCCNS(=O)(=O)c1ccc(Cl)c(C(F)(F)F)c1
14 | 884 | NCCCNCCCCNCCCNS(=O)(=O)c1ccc(C(F)(F)F)cc1
15 | 158 | NCCCNCCCCNCCCNS(=O)(=O)c1ccc(Cl)cc1
16 | 2110 | NCCCNCCCCNCCCNS(=O)(=O)c1ccc(Br)cc1Br
17 | 2960 | NCCCNCCCCNCCCNS(=O)(=O)c1ccccc1
18 | 9 | NCCCNCCCCNCCCNS(=O)(=O)c1ccc(Cl)c(Cl)c1Cl
19 | 56 | NCCCNCCCCNCCCNS(=O)(=O)c1ccc(Cl)cc1Cl
